Measurements: ChEMBL document CHEMBL3045033, “Synthesis of new potential anticancer agents based on 4-thiazolidinone and oleanane scaffolds” (Med Chem Res, 2012)
Where “and” joins values, the source holds several entries; their conditions need not be identical. Identical values can stand only once.

Experiments:
NCI-H522 [1] = test: Cytotoxicity against Homo sapiens (human) NCI-H522 cells assessed as cellular growth at 10^-5 M after 48 hr by SRB assay relative to untreated control; type: functional
IGROV-1 = test: Cytotoxicity against Homo sapiens (human) IGROV1 cells after 48 hr by SRB assay; type: functional
RXF 393 = test: Cytotoxicity against Homo sapiens (human) RXF393 cells after 48 hr by SRB assay; type: functional
NCI-H460 = test: Cytotoxicity against Homo sapiens (human) NCI-H460 cells assessed as cellular growth at 10^-5 M after 48 hr by SRB assay relative to untreated control; type: functional
MDA-MB-435 = test: Cytotoxicity against Homo sapiens (human) MDA-MB-435 cells after 48 hr by SRB assay; type: functional; conditions: MDA-MB-435, 48 h; for CC50: read-out: pLC50 (the source's name) (converted)
U-251 = test: Cytotoxicity against Homo sapiens (human) U251 cells assessed as cellular growth at 10^-5 M after 48 hr by SRB assay relative to untreated control; type: functional
MCF7 = test: Cytotoxicity against Homo sapiens (human) MCF7 cells assessed as cellular growth at 10^-5 M after 48 hr by SRB assay relative to untreated control; type: functional
Hs-578T [2] = test: Cytotoxicity against Homo sapiens (human) Hs578T cells after 48 hr by SRB assay; type: functional
HCT-116 = test: Cytotoxicity against Homo sapiens (human) HCT116 cells assessed as cellular growth at 10^-5 M after 48 hr by SRB assay relative to untreated control; type: functional
A549 = test: Cytotoxicity against Homo sapiens (human) A549 cells assessed as cellular growth at 10^-5 M after 48 hr by SRB assay relative to untreated control; type: functional
OVCAR-8 = test: Cytotoxicity against Homo sapiens (human) OVCAR8 cells assessed as cellular growth at 10^-5 M after 48 hr by SRB assay relative to untreated control; type: functional
NCI-H522 [3] = test: Cytotoxicity against Homo sapiens (human) NCI-H522 cells after 48 hr by SRB assay; type: functional; conditions: NCI-H522, 48 h; for CC50: read-out: pLC50 (the source's name) (converted)
K562 = test: Cytotoxicity against Homo sapiens (human) K562 cells after 48 hr by SRB assay; type: functional; conditions: K562, 48 h
RPMI-8226 = test: Cytotoxicity against Homo sapiens (human) RPMI8226 cells after 48 hr by SRB assay; type: functional; conditions: RPMI-8226, 48 h
TK-10 = test: Cytotoxicity against Homo sapiens (human) TK10 cells assessed as cellular growth at 10^-5 M after 48 hr by SRB assay relative to untreated control; type: functional
MDA-MB-468 [4] = test: Cytotoxicity against Homo sapiens (human) MDA-MB-468 cells after 48 hr by SRB assay; type: functional; conditions: MDA-MB-468, 48 h, read-out: pLC50 (the source's name) (converted)
A498 = test: Cytotoxicity against Homo sapiens (human) A498 cells assessed as cellular growth at 10^-5 M after 48 hr by SRB assay relative to untreated control; type: functional
Hs-578T [5] = test: Cytotoxicity against Homo sapiens (human) Hs578T cells assessed as cellular growth at 10^-5 M after 48 hr by SRB assay relative to untreated control; type: functional
SF-295 = test: Cytotoxicity against Homo sapiens (human) SF295 cells assessed as cellular growth at 10^-5 M after 48 hr by SRB assay relative to untreated control; type: functional
MDA-MB-468 [6] = test: Cytotoxicity against Homo sapiens (human) MDA-MB-468 cells at 10^-4 to 10^-8 M after 48 hr by SRB assay; type: functional; conditions: MDA-MB-468, 48 h, read-out: pTGI (converted)
CCRF-CEM = test: Cytotoxicity against Homo sapiens (human) CCRF-CEM cells assessed as cellular growth at 10^-5 M after 48 hr by SRB assay relative to untreated control; type: functional
HL-60(TB) = test: Cytotoxicity against Homo sapiens (human) HL-60(TB) cells assessed as cellular growth at 10^-5 M after 48 hr by SRB assay relative to untreated control; type: functional
T47D = test: Cytotoxicity against Homo sapiens (human) T47D cells assessed as cellular growth at 10^-5 M after 48 hr by SRB assay relative to untreated control; type: functional
[7] = Toxicity in mouse; type: organism-based; conditions: in vivo

`COC(=O)[C@]12CCC(C)(C)C[C@H]1C1=CC[C@@H]3[C@@]4(C)CC/C(=N\O)C(C)(C)[C@@H]4CC[C@@]3(C)[C@]1(C)CC2` gave an Activity (NCI-H522 [1]) of 23.74%, a GI50 (IGROV-1; Homo sapiens, IGROV-1, 48 h) of 33.9 µM and a GI50 (RXF 393; Homo sapiens, RXF 393, 48 h) of 18.2 µM. For the same compound, the Activity (NCI-H460) was 44.14%, the GI50 (MDA-MB-435) was 39.8 µM and the CC50 (MDA-MB-435) was over 100 µM. The Activity (U-251) was 33.89%, the Activity (MCF7) was 26.08% and the GI50 (Hs-578T [2]) was 27.5 µM. It also gave an Activity (HCT-116) of 3.39%, an Activity (A549) of -41.06% and an Activity (OVCAR-8) of 11.3%. The GI50 (NCI-H522 [3]) was 26.3 µM, the CC50 (NCI-H522 [3]) was over 100 µM and the GI50 (K562) was 37.2 µM. It also gave a GI50 (RPMI-8226) of 39.8 µM.

Compound `CC1(C)CC[C@@]23CC[C@]4(C)[C@@](OC2=O)([C@@H]3C1)[C@@H](Br)C[C@@H]1[C@@]2(C)CC/C(=N\O)C(C)(C)[C@@H]2CC[C@]14C` has an Activity (TK-10) of 31.05%, a CC50 (MDA-MB-468 [4]) of over 100 µM and an Activity (A498) of 150.51%. It also gave an Activity (Hs-578T [5]) of 258.88%, a CC50 (MDA-MB-435) of over 100 µM and a GI50 (Hs-578T [2]) of 4.68 µM. For the same compound, the CC50 (NCI-H522 [3]) was over 100 µM, the GI50 (K562) was 56.2 µM and the Activity (SF-295) was 19.14%. For the same compound, the GI50 (RPMI-8226) was over 100 µM.

With `COC(=O)[C@]12CCC(C)(C)C[C@H]1C1=CC[C@@H]3[C@@]4(C)CC/C(=N\OC(=O)/C=C5/SC(=O)NC5=O)C(C)(C)[C@@H]4CC[C@@]3(C)[C@]1(C)CC2` the GI50 (IGROV-1) was 8.91 µM and 1.91 µM, the GI50 (RXF 393) was 6.61 µM and 1.91 µM and the TGI (MDA-MB-468 [6]) was 6.61 µM. The Activity (CCRF-CEM) was -24.8%, the Activity (HL-60(TB)) was -46.91% and the Activity (T47D) was 9.18%. The MTD [7] was over 400 mg/kg.
